The target of one assay is T1, vWF Binding to Gp1b (Homo sapiens, UniProt P04275+P07359).
T1 construct: multimeric vWF (isolated from human plasma cryoprecipitate); Formalin-fixed platelets, prepared according to the method of MacFarlane; from tissue; host or cells: vWF from human plasma cryoprecipitate; GPIb on formalin-fixed platelets
Kind of assay: Inhibition of ristocetin-induced binding of 125I-vWF to formalin-fixed platelets. Particulars: at 100 µg/ml; ristocetin 1.0 mg/ml. As to the method: The binding of vWf (vonWillebrand Factor) to glycoprotein Ib is measured in one of two experimental systems, in the presence of either ristocetin or botrocetin as modulators of binding. The ristocetin modulated binding is described herein.
Formalin-fixed platelets, prepared according to the method of MacFarlane, D. et al., Thromb. Diath. Haemorrh. 34, 306-308 (1975), were preincubated at room temperature for 15 minutes with specified dilutions of oligomers according to the present invention. Ristocetin, (Sigma, St. Louis, MO) diluted to a final concentration of 1.0 mg/ml, and ^125I-labelled multimeric vWF (isolated from human plasma cryoprecipitate according to the method of Fulcher, C.A. et al. Proc. Natl. Acad. Sci. USA, 79, 1648-1652 (1982), and labelled according to the method of Fraker, P.J. et al. Biochem. Biophys. Res. Commun., 80, 849-857 (1978)) were then added to the incubation mixture, and the amount of ^125I- vWF bound to the platelets was determined. ^125I-vWF binding to the platelets was referenced against 100% binding which was defined as the amount of ^125I- vWF bound in the absence of added oligomer compound. The method for measuring vWF binding is reported in detail in Ruggeri et al., J. Clin. Invest., 72, 1-12, (1983), herein incorporated by reference.

For a further assay, the system named is normal pooled plasma. Kind of assay: Anticoagulation activity, Activated Partial Thromboplastin Time (APTT) test. The following applies: concentration required to double clotting time. In outline:
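Normal pooled plasma was mixed with compound in 50 mM Tris-HCl, pH 7.5, and held at 37 °C for 2.5 min. Actin-activated cephaloplastin was added for 5 min, then 35 mM CaCl, and clotting time was read photometrically. Over about .025–1 mg/ml, the concentration doubling clotting time was found by linear interpolation.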

Assay [1] deals with Vascular smooth muscle cells (VSMC). Kind of assay: Smooth Muscle Cell DNA Synthesis Assay (3H-thymidine incorporation in response to PDGF). The class given is cell-based, swine. The following applies: inhibition of incorporation of 3H-thymidine in response to PDGF (9 ng/ml). Here is the method:
Vascular smooth muscle cells (VSMC) are isolated from swine coronaries obtained from swine hearts (Hatfield Meat Packing, Hatfield, PA) by enzyme dissociation as described by Gunther, et al., in J. Cell. Biol. 92, 289 (1982). Hyaluronidase (0.5 mg/ml) is added to facilitate dispersal. Cells are maintained in Earle's modified minimal essential medium (EMEM) with D-valine substituted for L-valine, supplemented with Hepes (10 mM), fetal bovine serum (FBS) (10%), penicillin (100 U/ml) and streptomycin ( 100 µg/ml).
The VSMC (passage 2) are plated at a density of 3 x 10^4 /cm2 (1x10^4 cells/well of 96 well tray) and after 48 hours of normal growth are arrested by replacement of above media with serum-free media for 48 hours consisting of: EMEM: Hams F12 (1:1), insulin, 5 µg/ml; transferrin, 35 µg/ml; selenite, 5 ng/ml; antibiotics and buffer (as above). The oligomer of the present invention to be tested (.01-10 µM) is added 2 hours prior to addition of porcine platelet derived growth factor (Research and Diagonostics, Minneapolis, MN), or FBS,in fresh serum-free media. Twenty-four hours later the oligomers are again added preceding addition of growth factors by 2 hours. […]
The VSMC are pulsed (5 hours) with ^3H-thymidine (Amersham, Arlington Heights, IL) (1 µCi/well of a 96 well plate; 42 Ci/mmole) added 15-18 hours after the last dose of growth factor. DNA synthesis is determined in NaOH extraction of ethanol/ether fixed cells as reported by Nemecek, et al., PNAS 83, 674 (1986). The cells are washed with phosphate bufferred saline (200 µl/well of 96-well tray. The cells are incubated with trichloroacetic acid (TCA) (10%, 200 ul) for 5 minutes to remove cytoplasmic label. After a rapid wash with cold 10% TCA, cells are fixed with ethanol/ether (2:1, 200 µl/well 5 min) and dried. The labeled DNA is extracted with 0.5 N NaOH (200 µl/well 30 min incubation, room temperature). The extracted DNA is neutralized (0.5 N HCI) and counted by liquid scintillation.
Statistical evaluation is as reported by Bilder, et al., Am. […] IC50 values are calculated by linear regression (RPL of RS1) from % inhibition of a minimum of 3 log fold dilutions of oligomers in the presence of PDGF (9 ng/ml) which give 70-80% of a maximal PDGF response. […] Percent inhibition is calculated by comparing the effect of PDGF alone (vehicle treated cultures + PDGF minus vehicle treated cultures without PDGF) to the effect of oligomers (oligomer + PDGF minus oligomer alone) and divided by the effect of PDGF times 100. i.e., = % inhibition = ((ΔVehicle + PDGF) - (Δoligomer + PDGF)/(Δvehicle + PDGF)) x 100.
For orientation: Uptake of a labelled nucleoside into DNA is a usual measure of proliferation.

T1 sequence (P04275 764-2813 limits assumed): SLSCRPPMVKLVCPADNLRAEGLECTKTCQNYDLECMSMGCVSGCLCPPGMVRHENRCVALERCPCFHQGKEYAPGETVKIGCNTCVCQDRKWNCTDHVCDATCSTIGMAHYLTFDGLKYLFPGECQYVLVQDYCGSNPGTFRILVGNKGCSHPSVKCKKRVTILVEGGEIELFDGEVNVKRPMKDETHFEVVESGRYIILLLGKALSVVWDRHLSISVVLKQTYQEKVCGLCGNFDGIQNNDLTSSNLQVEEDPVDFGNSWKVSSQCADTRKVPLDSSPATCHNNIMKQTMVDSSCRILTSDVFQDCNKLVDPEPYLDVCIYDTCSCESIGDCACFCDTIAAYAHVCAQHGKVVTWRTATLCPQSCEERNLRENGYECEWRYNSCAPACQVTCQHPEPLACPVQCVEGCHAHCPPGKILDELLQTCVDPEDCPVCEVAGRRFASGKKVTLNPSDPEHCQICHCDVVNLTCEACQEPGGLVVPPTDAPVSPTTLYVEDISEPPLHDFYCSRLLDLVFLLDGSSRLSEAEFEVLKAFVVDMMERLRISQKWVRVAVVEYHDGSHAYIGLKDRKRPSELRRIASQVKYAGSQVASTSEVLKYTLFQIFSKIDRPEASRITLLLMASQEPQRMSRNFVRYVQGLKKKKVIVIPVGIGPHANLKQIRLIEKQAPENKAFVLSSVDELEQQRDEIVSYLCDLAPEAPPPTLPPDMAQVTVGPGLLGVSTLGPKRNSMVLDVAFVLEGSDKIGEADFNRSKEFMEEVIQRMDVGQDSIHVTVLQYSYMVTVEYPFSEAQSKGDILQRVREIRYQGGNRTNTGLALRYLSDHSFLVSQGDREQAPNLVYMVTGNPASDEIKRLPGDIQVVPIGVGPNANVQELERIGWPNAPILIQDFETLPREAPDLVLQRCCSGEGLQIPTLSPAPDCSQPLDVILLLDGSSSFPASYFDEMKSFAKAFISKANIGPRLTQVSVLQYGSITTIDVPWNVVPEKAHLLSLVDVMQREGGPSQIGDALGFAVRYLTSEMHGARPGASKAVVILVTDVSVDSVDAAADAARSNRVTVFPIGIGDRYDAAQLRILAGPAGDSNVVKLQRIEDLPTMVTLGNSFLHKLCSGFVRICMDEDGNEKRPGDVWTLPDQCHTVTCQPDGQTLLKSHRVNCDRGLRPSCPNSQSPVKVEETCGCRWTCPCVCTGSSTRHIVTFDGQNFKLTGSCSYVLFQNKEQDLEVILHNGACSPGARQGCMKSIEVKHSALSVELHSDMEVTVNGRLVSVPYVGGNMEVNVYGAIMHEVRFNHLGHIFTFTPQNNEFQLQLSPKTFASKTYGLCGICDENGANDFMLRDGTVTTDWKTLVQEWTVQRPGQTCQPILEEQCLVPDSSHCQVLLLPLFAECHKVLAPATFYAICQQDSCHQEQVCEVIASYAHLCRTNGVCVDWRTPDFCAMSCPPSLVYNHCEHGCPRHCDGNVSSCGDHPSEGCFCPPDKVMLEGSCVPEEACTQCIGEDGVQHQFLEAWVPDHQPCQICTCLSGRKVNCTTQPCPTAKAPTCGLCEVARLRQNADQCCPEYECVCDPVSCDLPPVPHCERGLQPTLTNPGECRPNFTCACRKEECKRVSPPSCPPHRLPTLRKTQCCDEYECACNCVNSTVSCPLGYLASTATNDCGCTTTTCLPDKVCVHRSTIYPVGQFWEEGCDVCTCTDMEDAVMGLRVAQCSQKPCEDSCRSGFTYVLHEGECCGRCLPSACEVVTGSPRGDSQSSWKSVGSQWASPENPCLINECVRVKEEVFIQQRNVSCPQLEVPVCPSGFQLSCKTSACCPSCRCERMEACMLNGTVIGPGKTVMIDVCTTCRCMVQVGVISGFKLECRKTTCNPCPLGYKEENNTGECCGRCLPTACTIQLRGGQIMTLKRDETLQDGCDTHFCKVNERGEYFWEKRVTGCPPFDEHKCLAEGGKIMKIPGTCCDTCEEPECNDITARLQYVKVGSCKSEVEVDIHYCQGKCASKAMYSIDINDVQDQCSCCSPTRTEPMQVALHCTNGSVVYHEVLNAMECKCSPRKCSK
T1 sequence (P07359 17-652): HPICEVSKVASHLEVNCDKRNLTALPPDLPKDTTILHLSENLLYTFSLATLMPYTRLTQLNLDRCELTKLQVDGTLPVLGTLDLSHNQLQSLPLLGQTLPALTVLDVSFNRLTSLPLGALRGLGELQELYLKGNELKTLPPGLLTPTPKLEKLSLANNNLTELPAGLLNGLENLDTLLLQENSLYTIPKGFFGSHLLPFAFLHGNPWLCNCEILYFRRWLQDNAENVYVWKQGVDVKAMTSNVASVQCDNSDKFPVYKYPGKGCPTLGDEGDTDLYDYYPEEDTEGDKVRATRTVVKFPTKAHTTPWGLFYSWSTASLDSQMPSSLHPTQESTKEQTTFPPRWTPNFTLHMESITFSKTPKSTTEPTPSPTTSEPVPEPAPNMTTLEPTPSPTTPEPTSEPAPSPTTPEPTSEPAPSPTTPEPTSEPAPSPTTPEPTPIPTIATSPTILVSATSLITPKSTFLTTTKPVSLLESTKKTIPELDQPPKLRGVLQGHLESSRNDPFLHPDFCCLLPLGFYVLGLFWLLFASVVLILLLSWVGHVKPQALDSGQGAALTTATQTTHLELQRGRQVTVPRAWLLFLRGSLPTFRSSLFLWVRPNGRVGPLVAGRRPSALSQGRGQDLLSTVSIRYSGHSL

`Cc1cc(O)c(Cc2cc(O)c(Cc3cc(O)c(Cc4cc(O)c(Cc5cc(O)c(Cc6cc(O)c(Cc7cc(O)c(Cc8cc(O)ccc8CCC(=O)O)cc7CCC(=O)O)cc6CCC(=O)O)cc5CCC(=O)O)cc4CCC(=O)O)cc3CCC(=O)O)cc2CCC(=O)O)cc1CCC(=O)O` [Ex 4, 5-[4-[4-[4-[4-[4-[4-[[2-(2-carboxyethyl)-5-hydroxy]benzyl]-[2-(2-carboxyethyl)-5-hydroxy]benzyl]-[2-(2-carboxyethyl)-5-hydroxy]benzyl]-[2-(2-carboxyethyl)-5-hydroxy]benzyl]-[2-(2-carboxyethyl)-5-hydroxy]benzyl]-[2-(2-carboxyethyl)-5-hydroxy]benzyl]-[2-(2-carboxyethyl)-5-hydroxy]benzyl]-4-hydroxy-2-methylhydrocinnamic acid]: the “Ristocetin-Induced Inhibition of vWF Binding to Gp1b” value on vWF Binding to Gp1b came to 50% at 100 µg/ml. The “APTT ICDCT” value in the assay with normal pooled plasma came out at 430 µg/mL. Further, in assay [1], the IC50 turned out to be 1600 nM.

The term IC50 denotes the concentration that gives 50% inhibition. Low readings indicate inhibition by little substance, high ones a need for much substance.

The values are drawn from EP0585371B1, “AROMATIC OLIGOMERIC COMPOUNDS USEFUL AS MIMICS OF BIOACTIVE MACROMOLECULES” (RHONE-POULENC RORER INTERNATIONAL (HOLDINGS) INC., priority 1991, dated 1992).
